Assay results taken from article PMC3990509, “Structures of Trypanosoma brucei Methionyl-tRNA Synthetase with Urea-Based Inhibitors Provide Guidance for Drug Design against Sleeping Sickness” (PLoS Neglected Tropical Diseases, 2014).
“Also recorded” adds a separate entry of the source. Where two headings read alike, the source gives them in different places.

Legend:
TbMetRS = target: T1, TbMetRS (Trypanosoma brucei brucei, UniProt Q38C91); assay: Thermal melt of TbMetRS with combinations of ligands (Chem 1433, ATP, AMPPCP, Mg2+); type: binding; conditions: for change in Tm of TbMetRS in the presence of the nucleotide and Mg2+: compared to TbMetRS only, no inhibitor
T1 construct: hexa-histidine tag (3C protease site) (N, cleaved yes); made in house; host or cells: E. coli
T1 sequence (Q38C91 1-773): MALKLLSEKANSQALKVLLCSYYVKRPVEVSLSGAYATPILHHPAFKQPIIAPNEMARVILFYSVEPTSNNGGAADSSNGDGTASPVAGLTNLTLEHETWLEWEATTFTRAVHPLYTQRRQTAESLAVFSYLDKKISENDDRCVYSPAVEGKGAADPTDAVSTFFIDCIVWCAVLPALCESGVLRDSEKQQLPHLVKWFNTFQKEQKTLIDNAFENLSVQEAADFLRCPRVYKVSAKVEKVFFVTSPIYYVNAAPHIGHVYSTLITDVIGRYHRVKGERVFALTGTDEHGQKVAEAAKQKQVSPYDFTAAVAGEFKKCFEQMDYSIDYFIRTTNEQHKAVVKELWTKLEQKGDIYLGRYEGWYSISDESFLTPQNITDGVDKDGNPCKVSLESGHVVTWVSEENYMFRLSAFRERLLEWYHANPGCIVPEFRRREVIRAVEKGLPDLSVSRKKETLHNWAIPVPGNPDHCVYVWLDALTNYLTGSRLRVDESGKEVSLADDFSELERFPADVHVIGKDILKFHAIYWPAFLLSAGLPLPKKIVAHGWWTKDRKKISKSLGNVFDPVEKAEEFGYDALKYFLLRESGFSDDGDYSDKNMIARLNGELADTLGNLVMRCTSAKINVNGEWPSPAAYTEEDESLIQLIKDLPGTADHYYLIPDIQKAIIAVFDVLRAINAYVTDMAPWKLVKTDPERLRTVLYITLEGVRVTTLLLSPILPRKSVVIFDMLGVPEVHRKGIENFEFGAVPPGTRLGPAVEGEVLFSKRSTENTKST
Description: Thermal melt experiments on TbMetRS in the presence of different combinations of ligands were performed to determine the nature of the interactions between Chem 1433 and ATP when they are bound to TbMetRS. A similar analysis has been used to establish synergism between an inhibitor of human ProRS, halofuginone, and ATP [25]. An increase in Tm of the TbMetRS•1433 complex upon adding ATP may be an indication of synergism between Chem 1433 and ATP in binding. […] Instead, the addition of ATP-Mg^2+ or AMPPCP-Mg^2+ to the complex of the TbMetRS•Chem 1433 complex result in increase of Tm by an average of 1.6°C (n = 4, P<0.02) and 1.2°C (n = 4, P<0.05), respectively, compared to the Tm of TbMetRS•Chem 1433 alone (Figure S4).
(§1) Supplementary file pntd.0002775.s004.pdf: Figure S4 Thermal melting curves of Tb MetRS in the presence of different ligands. TbMetRS (0.1 mg/ml) is incubated in the presence of different ligands as indicated. The incubation temperature of the samples is increased from 20°C to 90°C and the fluorescence signal from the reporter dye (Sypro Orange) monitored. Melting temperatures (Tm) are calculated from the curves as the temperature where the first derivative value is maximal. The average Tm value of TbMetRS in the presence of Chem 1433, ATP and Mg^2+ (purple dash) is 1.6°C higher than the Tm of TbMetRS in the presence of Chem 1433 only (n = 4, P<0.02). The average Tm of TbMetRS in the presence of Chem 1433, AMPPCP and Mg^2+ (black dot) is 1.2°C higher than the Tm of TbMetRS in the presence of Chem 1433 only (n = 4, P<0.05). Changes in Tm of TbMetRS in the presence of ATP and Mg^2+ or AMPPCP and Mg^2+ compared to TbMetRS only are insignificant (P>0.3 and 0.8 respectively). (PDF) Click here for additional data file.
A typical thermal melting curves of TbMetRS in the presence of different ligands.
as §1, with “TbMetRS” for “Supplementary file pntd.0002775.s004.pdf: Figure S4 Thermal melting curves of Tb MetRS in the presence of different ligands. TbMetRS”, “Mg2+” for “Mg^2+”, “P < 0.02).” for “P<0.02).”, “P < 0.05).” for “P<0.05).”, “(P > 0.3” for “(P>0.3”, “respectively).” for “respectively). (PDF) Click here for additional data file.”
(1 picture or pasted object on this page, not shown here)

[1] = target: T2, T. brucei methionyl-tRNA synthetase (TbMetRS) (Trypanosoma brucei brucei, UniProt Q38C91); set-up: method as in PMID 22720744; conditions: previously reported ABI, used for comparison; read-out: IC50 of the ABI Chem 1312 against TbMetRS; cited from earlier work
T2 construct: hexa-histidine tag (3C protease site) (N, cleaved yes); made in house; host or cells: E. coli
T2 sequence (Q38C91 1-773): T1 sequence (Q38C91 1-773)

MDR-1 MDCKII = conditions: cited from earlier work
T. brucei infection = system: T. brucei infection; set-up: method as in PMID 22720744; conditions: administered orally; cited from earlier work
[2] = system: T. brucei brucei (bloodstream form strain 427); assay: T. brucei growth inhibition assay; type: cell-based; conditions: Trypanosoma brucei, read-out: EC50 (growth of T. brucei in cell culture)
Excerpt: T. brucei brucei (bloodstream form strain 427 from K. Stuart, Seattle BioMed, Seattle, WA) were used for EC50 measurements as previously described, [14].

[3] = set-up: method as in PMID 22720744; conditions: cited from earlier work
[4] = target: T2, T. brucei methionyl-tRNA synthetase (TbMetRS); assay: T. brucei methionyl-tRNA synthetase aminoacylation assay; type: biochemical; conditions: for IC50: read-out: IC50 (aminoacylation activity of purified TbMetRS)
Description: Compound IC50s were determined in the T. brucei methionyl-tRNA synthetase aminoacylation assay as previously described, [14] except 10 U/mL of pyrophosphatase was used per reaction.

[5] = system: Staphylococcus aureus MetRS; set-up: method as in PMID 19015366; conditions: physiological ATP 2500 µM versus 25 µM; cited from earlier work

| Compound | EC50 [2] [nM] | IC50 [4] [nM] | further results |
| --- | --- | --- | --- |
| Nc1ncnc2c1ncn2C1OC(COP(=O)(O)OP(=O)(O)CP(=O)(O)O)C(O)C1O (stereo not drawn) [AMPPCP, β,γ-methyleneadenosine 5′-triphosphate] | – | – | change in Tm of TbMetRS in the presence of the nucleotide and Mg2+ (TbMetRS): does not change significantly; also recorded: insignificant |
| Nc1ncnc2c1ncn2[C@@H]1O[C@H](COP(=O)(O)OP(=O)(O)OP(=O)(O)O)[C@@H](O)[C@H]1O [ATP] | – | – | change in Tm of TbMetRS in the presence of the nucleotide and Mg2+ (TbMetRS): does not change significantly; also recorded: insignificant |
| Oc1cc(NCCCNCc2cc(Cl)cc(Cl)c2)nc2ccccc12 [Chem 1312] | – | – | IC50 [1]: 8 nM |
| O=C(NCCCNCc1cc(Cl)cc(Cl)c1)Nc1ccccc1 [Chem 1356] | 357 | 57 | membrane permeability (MDR-1 MDCKII): excellent membrane permeability; activity against the parasite in a mouse model (T. brucei infection): suppressive activity; entry into the central nervous system [3]: enter the central nervous system; oral bioavailability [3]: reasonable oral bioavailability |
| O=C(NCCCNCc1cc(Cl)cc(Cl)c1)Nc1ccccc1O [Chem 1392] | 210 | – | – |
| COc1cc(Cl)cc(CNCCCNC(=O)Nc2ccccc2)c1 [Chem 1415] | 267 | 45 | – |
| O=C(NCCCNCc1cc(Cl)cc(Cl)c1)Nc1ccsc1 [Chem 1433] | 190 | 28 | increase of Tm on addition of ATP-Mg2+ to the TbMetRS•Chem 1433 complex (TbMetRS; compared to Tm of TbMetRS•Chem 1433 alone, n = 4, P<0.02, TbMetRS 0.1 mg/ml): 1.6 °C; increase of Tm on addition of AMPPCP-Mg2+ to the TbMetRS•Chem 1433 complex (TbMetRS; compared to Tm of TbMetRS•Chem 1433 alone, n = 4, P<0.05, TbMetRS 0.1 mg/ml): 1.2 °C; activity against the parasite in a mouse model (T. brucei infection): moderate activity; also recorded: suppressive activity; entry into the central nervous system [3]: enter the central nervous system; oral bioavailability [3]: reasonable oral bioavailability; fold less favorable IC50 than Chem 1312 ([4]; Chem 1433 (UBI) versus Chem 1312 (ABI)): ~3.5 fold |
| COc1cc(Cl)cc(CNCCCNC(=O)Nc2ccsc2)c1 [Chem 1444] | 150 | 19 | – |
| C=CCc1cc(Cl)cc(CNCCCNC(=O)Nc2ccsc2)c1OCc1ccccc1 [Chem 1476] | 1120 | 1680 | – |
| C=C(F)c1sc(CNCCCNc2cc(O)c3ccccc3n2)c(C)c1Br [REP8839] | – | – | fold lower IC50 at 2500 µM ATP than at 25 µM ATP [5]: 30- to 50 fold |

Continued, in another order:

| EC50 [2] [nM] | IC50 [4] [nM] | Compound | further results |
| --- | --- | --- | --- |
| 170 | – | O=C(NCCCNCc1cc(Cl)cc(Cl)c1)Nc1cccc(O)c1 [Chem 1387] | – |
| 9550 | > 10000 | CCOc1c(I)cc(Cl)cc1CNCCCNC(=O)Nc1ccsc1 [Chem 1469] | – |
| 5260 | 198 | C=CCc1cc(Cl)cc(CNCCCNC(=O)Nc2ccsc2)c1O [Chem 1472] | – |
| 3840 | 316 | O=C(NCCCNCc1cc(Cl)cc(I)c1O)Nc1ccsc1 [Chem 1473] | – |
| 1160 | 1230 | C=CCOc1c(CC=C)cc(Cl)cc1CNCCCNC(=O)Nc1ccsc1 [Chem 1475] | – |
| 1060 | 96 | C#Cc1cccc(CNCCCNC(=O)Nc2ccsc2)c1 [Chem 1478] | – |
| 2790 | 324 | O=C(NCCCNCc1cc(Cl)sc1Cl)Nc1ccsc1 [Chem 1509] | – |
| 9410 | 1360 | Cc1sc2ccccc2c1CNCCCNC(=O)Nc1ccsc1 [Chem 1540] | – |
